In patent publication US20220098197A1, “SALTS OF HETEROCYCLIC COMPOUND AND USE THEREOF” (priority 2019, published 2022):
“And” between values parts separate entries of the source, which are not always exact repeats. Identical values can stand only once.

Columns and labels:
[1] = Dissolution test of capsules (Chinese Pharmacopoeia 2015, General Method 0931, 2nd Method); format: physicochemical
Description: The hydrates obtained hereinabove and the compound of formula A were tested for dissolution rate. The test method was as follows.
Step 1: Pretreating Raw Materials
The samples were passed through a 100 mesh sieve.
Step 2: Blending Raw Materials with Auxiliary Materials
The raw materials and lactose were weighed according to the prescription, mixed in equal increment, sieved and mixed.
The capsules were filled via a capsule filling plate and sealed. The difference of the filling amount was controlled to ±5%. The appearance was inspected to ensure that the sealing was correct and there was no split or deformation.
Test method: dissolution test method (Chinese Pharmacopoeia, edited in 2015, Chapter 4, General Method 0931, the 2nd Method)
Dissolution medium: aqueous solution
Specific test method: The sample was tested following the dissolution test method (Chinese Pharmacopoeia, edited in 2015, Chapter 4, General Method 0931, the 2nd Method). 900 ml aqueous solution was used as the dissolution medium. The speed was 50 rpm. The test was performed in accordance with the method. […] After filtration, the filtrate was precisely measured and quantitatively diluted with the dissolution medium to prepare a solution containing about 10 μg of sample per 1 ml. The absorbance was measured by at 231 nm by UV-Vis spectrophotometry (Chinese Pharmacopoeia, edited in 2015, Chapter 4, General Method 0931, the 2nd Method). An appropriate amount of the control sample was taken, weighed accurately, dissolved in dissolution medium and diluted quantitatively to prepare a solution containing about 10 μg of the sample per 1 ml, and then measured in the same way. The amount of dissolution per capsule was calculated.

[2] = test system: CS-induced ALI mice; assay: CS-induced lung injury model: lung weight ratio (coefficient); format: in vivo, Balb/c mice; conditions: CT-NA 10 and 30 mg/kg intragastric; CS exposure; p<0.05
Description: Model preparation: The mice were randomly divided into 5 groups (12 mice in each group), which were the control group (the mice were exposed to fresh air), the saline group (the mice were exposed to cigarette smoke), dexamethasone (Dex) group (1 mg/kg) (the mice were exposed to cigarette smoke), CT-NA 10 mg/kg group and CT-NA 30 mg/kg group (the mice were exposed to cigarette smoke). According to the grouping, the mice were intragastrically administered saline, Dex and CT-NA, respectively. Thereafter, the mice were exposed to fresh air or cigarette smoke generated from 3R4F research-grade cigarettes (containing about 600 mg TPM/m^3 and 29.9 mg nicotine/m^3) in a cuboid plastic box (65×50x×45 cm). Ten cigarettes were burned every day for seven days. After one cigarette was burned, the next cigarette was ignited. […] 24 hrs after the last exposure to the cigarette smoke, the partial pressure of oxygen (PO2) of all mice was measured by the Moor VMS-OXY™ measuring instrument, which was used to measure the oxygenated/deoxygenated hemoglobin concentration and oxygen saturation (percentage) in the microcirculation at the wavelength range of 500 to 650 nm. […] As an index of pulmonary edema, the lung weight ratio was measured by dividing the individual lung weight of each mouse after aspirating the blood tissue from the lung surface, by the total body weight.

[3] = test system: CS-induced ALI mice; assay: CS-induced lung injury model: albumin assay in BALF; format: in vivo, Balb/c mice; conditions: CT-NA 10 and 30 mg/kg intragastric; CS exposure; p<0.01
Description: Model preparation: The mice were randomly divided into 5 groups (12 mice in each group), which were the control group (the mice were exposed to fresh air), the saline group (the mice were exposed to cigarette smoke), dexamethasone (Dex) group (1 mg/kg) (the mice were exposed to cigarette smoke), CT-NA 10 mg/kg group and CT-NA 30 mg/kg group (the mice were exposed to cigarette smoke). According to the grouping, the mice were intragastrically administered saline, Dex and CT-NA, respectively. Thereafter, the mice were exposed to fresh air or cigarette smoke generated from 3R4F research-grade cigarettes (containing about 600 mg TPM/m^3 and 29.9 mg nicotine/m^3) in a cuboid plastic box (65×50x×45 cm). Ten cigarettes were burned every day for seven days. After one cigarette was burned, the next cigarette was ignited. The daily body weight and general condition of the mice were checked. 24 hrs after the last exposure to the cigarette smoke, the partial pressure of oxygen (PO2) of all mice was measured by the Moor VMS-OXY™ measuring instrument, which was used to measure the oxygenated/deoxygenated hemoglobin concentration and oxygen saturation (percentage) in the microcirculation at the wavelength range of 500 to 650 nm. […] The albumin concentration ratio assessed from BALF represented not only the albumin level but also the permeability of the pulmonary microvascular.

[4] = test system: CS-induced ALI mice; assay: CS-induced lung injury model: lung MPO assay; format: in vivo, Balb/c mice; conditions: CS exposure; CT-NA 10 and 30 mg/kg, Dex 1 mg/kg; p<0.01
Description: Model preparation: The mice were randomly divided into 5 groups (12 mice in each group), which were the control group (the mice were exposed to fresh air), the saline group (the mice were exposed to cigarette smoke), dexamethasone (Dex) group (1 mg/kg) (the mice were exposed to cigarette smoke), CT-NA 10 mg/kg group and CT-NA 30 mg/kg group (the mice were exposed to cigarette smoke). According to the grouping, the mice were intragastrically administered saline, Dex and CT-NA, respectively. Thereafter, the mice were exposed to fresh air or cigarette smoke generated from 3R4F research-grade cigarettes (containing about 600 mg TPM/m^3 and 29.9 mg nicotine/m^3) in a cuboid plastic box (65×50x×45 cm). Ten cigarettes were burned every day for seven days. After one cigarette was burned, the next cigarette was ignited. […] The lung tissue was collected for determination of lung weight coefficient, histological examination and MPO activity.
In order to evaluate MPO activity, 50 mg strips of left lung tissue were washed, and then homogenized with normal saline. MPO activity was determined by measuring the changes in absorbance at 460 nm according to the detection standard by using MPO assay kit.

## CN([C@@H]1CCc2c(CC(=O)[O-])c3cccnc3n2C1)S(=O)(=O)c1ccc(F)cc1.[Na+] [Sodium salt hydrate]
[1]; mean of 6 capsules, purified water, 50 rpm, 5 min
  Dissolution rate, Mean (%), 5 min: 50.5%
[1]; mean of 6 capsules, purified water, 50 rpm, 10 min
  Dissolution rate, Mean (%), 10 min: 76.6%
[1]; mean of 6 capsules, purified water, 50 rpm, 15 min
  Dissolution rate, Mean (%), 15 min: 92.1%
[1]; mean of 6 capsules, purified water, 50 rpm, 20 min
  Dissolution rate, Mean (%), 20 min: 98.6%
[1]; mean of 6 capsules, purified water, 50 rpm, 30 min
  Dissolution rate, Mean (%), 30 min: 100.6%
[1]; mean of 6 capsules, purified water, 50 rpm, 45 min
  Dissolution rate, Mean (%), 45 min: 100.8%
[1]; same method, aqueous dissolution medium
  dissolution rate (in words): best dissolution rate
[1]; single capsules 1-6, purified water, 50 rpm, 5 min, hydrate
  Dissolution rate, 5 min: 55.8% and 34.3% and 57.9% and 45.5% and 56.7% and 52.8%
[1]; single capsules 1-6, purified water, 50 rpm, 10 min, hydrate
  Dissolution rate, 10 min: 77.8% and 82.6% and 69.0% and 73.6% and 62.2% and 94.6%
[1]; single capsules 1-6, purified water, 50 rpm, 15 min, hydrate
  Dissolution rate, 15 min: 96.6% and 79.1% and 91.7% and 93.3% and 99.1% and 92.7%
[1]; single capsules 1-6, purified water, 50 rpm, 20 min, hydrate
  Dissolution rate, 20 min: 101.8% and 94.8% and 96.2% and 98.3% and 100.1% and 100.2%
[1]; single capsules 1-6, purified water, 50 rpm, 30 min, hydrate
  Dissolution rate, 30 min: 103.4% and 100.7% and 98.0% and 99.1% and 102.2% and 100.2%
[1]; single capsules 1-6, purified water, 50 rpm, 45 min, hydrate
  Dissolution rate, 45 min: 102.8% and 101.5% and 97.5% and 99.7% and 102.7% and 100.9%
[2]
  lung weight coefficient: partially reduced
[3]
  BALF albumin contents: remarkably reduced
[4]
  MPO activity of lung tissues: attenuated
